Source: patent US20240246946A1, “MODULATORS OF TREX1” (Constellation Pharmaceuticals, Inc., priority 2021, published 2024)

Legend:
[1] = biological target: T1, full length mouse TREX1 (Mus musculus, UniProt Q91XB0); test: mTREX1 Biochemical Assay (fluorescence, dsDNA substrate degradation); settings: biochemical, read-out: mTREX1 IC50
T1 construct: N-terminally His-Tev tagged full length mouse TREX1; made in house; host or cells: E. coli
T1 sequence (Q91XB0 1-314): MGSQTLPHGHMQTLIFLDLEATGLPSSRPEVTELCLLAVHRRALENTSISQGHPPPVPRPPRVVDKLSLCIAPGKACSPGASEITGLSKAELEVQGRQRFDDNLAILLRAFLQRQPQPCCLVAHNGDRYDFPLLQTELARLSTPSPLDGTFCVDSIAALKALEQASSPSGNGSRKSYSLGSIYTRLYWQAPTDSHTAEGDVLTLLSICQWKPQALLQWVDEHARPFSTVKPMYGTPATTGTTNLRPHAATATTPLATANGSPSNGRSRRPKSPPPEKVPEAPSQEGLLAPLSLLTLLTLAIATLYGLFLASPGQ
Outline: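 Reaction run 18 h at 25° C. with 60 nM TEX615/quencher-labelled dsDNA and 6 pM mouse TREX1 in Tris buffer (pH 7.4, 5 mM MgCl2, 1.0% DMSO), enzyme having sat 4 h with compound across 10 concentrations. EDTA quench; substrate degradation measured as fluorescence increase.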

[2] = biological target: T2, full length human TREX1 (Homo sapiens, UniProt Q9NSU2); test: hTREX1 Biochemical Assay (fluorescence, dsDNA substrate degradation); settings: biochemical, read-out: hTREX1 IC50
T2 construct: N-terminally His-Tev tagged full length human TREX1; made in house; host or cells: E. coli
T2 sequence (Q9NSU2 1-314): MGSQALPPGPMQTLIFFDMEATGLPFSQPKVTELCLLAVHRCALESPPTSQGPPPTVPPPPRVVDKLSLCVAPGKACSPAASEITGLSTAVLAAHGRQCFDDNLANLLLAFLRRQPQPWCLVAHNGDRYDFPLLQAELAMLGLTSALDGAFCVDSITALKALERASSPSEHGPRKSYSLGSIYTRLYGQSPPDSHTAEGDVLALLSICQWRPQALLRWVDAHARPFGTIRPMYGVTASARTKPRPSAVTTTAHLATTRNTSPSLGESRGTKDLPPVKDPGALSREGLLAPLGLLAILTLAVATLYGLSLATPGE
Outline: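 Fluorescence rises as enzyme degrades a quenched TEX615-labelled dsDNA substrate (60 nM) in 50 mM Tris, 150 mM NaCl, 5 mM MgCl2, pH 7.4. Full-length His-Tev-tagged human TREX1, 4 pM, sits with compound 4 hours at 25° C before substrate; reaction 18 hours, stopped with EDTA.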

[3] = biological target: T3, human TREX2 (residues M44-A279) (Homo sapiens, UniProt Q9BQ50); test: hTREX2 Biochemical Assay (fluorescence, dsDNA substrate degradation); settings: biochemical selectivity for hTREX1 vs hTREX2
T3 construct: human TREX2 (residues M44-A279, expressed in E. coli); made in house; host or cells: E. coli
T3 sequence (Q9BQ50 44-279 isoform Q9BQ50-1): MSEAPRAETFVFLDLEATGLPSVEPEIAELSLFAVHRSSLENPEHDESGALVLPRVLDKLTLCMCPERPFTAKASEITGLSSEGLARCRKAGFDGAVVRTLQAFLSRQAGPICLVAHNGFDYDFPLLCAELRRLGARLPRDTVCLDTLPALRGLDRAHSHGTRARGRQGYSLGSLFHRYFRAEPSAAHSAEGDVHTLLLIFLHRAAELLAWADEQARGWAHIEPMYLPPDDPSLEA
Outline: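 Fluorogenic dsDNA degradation read at 615 nm (570 nm excitation) after EDTA quench. Final 60 nM substrate, 50 pM His-Tev-tagged enzyme, 5 mM MgCl2, pH 7.4, 1.0% DMSO; 4 h compound–enzyme preincubation then 18 h reaction, both 25 °C; 10-point titration.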

| IC50 [1] [nM] | IC50 [2] [nM] | hTREX1 vs hTREX2 selectivity [3] | SMILES |
| --- | --- | --- | --- |
| > 10 | > 10 | A (A = <25 fold selective for hTREX1) | CC(c1nc(C(=O)Nc2cnoc2)c(O)c(=O)n1C)C(c1cnn(CC(C)(C)O)c1)c1ccccc1Cl (single isomer, unassigned) [Example 86 D2E2] |
| > 10 | 1 to 10 | A (A = <25 fold selective for hTREX1) | CC(c1nc(C(=O)Nc2cnoc2)c(O)c(=O)n1C)C(c1cnn(CC2COC2)c1)c1ccccc1Cl (single isomer, unassigned) [Example 88 D1E2] |
| > 10 | > 10 | A (A = <25 fold selective for hTREX1) | CC(c1nc(C(=O)Nc2cnoc2)c(O)c(=O)n1C)C(c1cnn(CC2COC2)c1)c1ccccc1Cl (single isomer, unassigned) [Example 88 D2E1] |
| > 10 | > 10 | A (A = <25 fold selective for hTREX1) | CC(c1nc(C(=O)Nc2cnoc2)c(O)c(=O)n1C)C(c1cnn(CC2COC2)c1)c1ccccc1Cl (single isomer, unassigned) [Example 88 D2E2] |
| > 10 | > 10 | A (A = <25 fold selective for hTREX1) | CC(c1nc(C(=O)Nc2cnoc2)c(O)c(=O)n1C)C(c1cc(F)ccc1Cl)c1cn(C)nc1C#N (single isomer, unassigned) [Example 89 D1E1] |
| > 10 | 1 to 10 | A (A = <25 fold selective for hTREX1) | CC(c1nc(C(=O)Nc2cnoc2)c(O)c(=O)n1C)C(c1cnn(CC(C)(C)O)c1)c1cc(F)ccc1Cl (single isomer, unassigned) [Example 92 D1E2] |
| > 10 | > 10 | A (A = <25 fold selective for hTREX1) | CC(c1nc(C(=O)Nc2cnoc2)c(O)c(=O)n1C)C(c1cnn(CC2COC2)c1)c1cc(F)ccc1Cl (single isomer, unassigned) [Example 94 D1E2] |
| > 10 | > 10 | A (A = <25 fold selective for hTREX1) | Cc1n[nH]c(C)c1C(c1ccccc1C#N)C(C)c1nc(C(=O)Nc2cnoc2)c(O)c(=O)n1C (single isomer, unassigned) [Example 95 D2E1] |
| > 10 | > 10 | A (A = <25 fold selective for hTREX1) | Cc1n[nH]c(C)c1C(c1ccccc1C#N)C(C)c1nc(C(=O)Nc2cnoc2)c(O)c(=O)n1C (single isomer, unassigned) [Example 95 D2E2] |
| > 10 | > 10 | A (A = <25 fold selective for hTREX1) | CC(c1nc(C(=O)Nc2cnoc2)c(O)c(=O)n1C)C(c1ccccc1Cl)c1cnn(C)c1C#N (single isomer, unassigned) [Example 96 D1E2] |
| > 10 | > 10 | A (A = <25 fold selective for hTREX1) | CC(c1nc(C(=O)Nc2cnoc2)c(O)c(=O)n1C)C(c1ccccc1Cl)c1cnn(C)c1C#N (single isomer, unassigned) [Example 96 D2E1] |
| > 10 | 1 to 10 | A (A = <25 fold selective for hTREX1) | COCCn1cc(C(c2cc(F)ccc2Cl)C(C)c2nc(C(=O)Nc3cnoc3)c(O)c(=O)n2C)cn1 (single isomer, unassigned) [Example 97 D1E2] |
| 1 to 10 | > 10 | A (A = <25 fold selective for hTREX1) | CC(c1nc(C(=O)Nc2cnoc2)c(O)c(=O)n1C)C(c1cnn(CCOC(F)(F)F)c1)c1cc(F)ccc1Cl (single isomer, unassigned) [Example 98 D1E2] |
| > 10 | 1 to 10 | A (A = <25 fold selective for hTREX1) | CC(c1nc(C(=O)Nc2cnoc2)c(O)c(=O)n1C)C(c1cnn(C(C)(C)CC#N)c1)c1cc(F)ccc1Cl (single isomer, unassigned) [Example 100 D1E2] |
| > 10 | > 10 | A (A = <25 fold selective for hTREX1) | CC(c1nc(C(=O)Nc2cnoc2)c(O)c(=O)n1C)C(c1cnn(CCOC(F)(F)F)c1)c1cc(F)ccc1C#N (single isomer, unassigned) [Example 101 D1E1] |
| > 10 | > 10 | A (A = <25 fold selective for hTREX1) | CC(c1nc(C(=O)Nc2cnoc2)c(O)c(=O)n1C)C(c1cnn(CC(F)F)c1)c1cc(F)ccc1C#N (single isomer, unassigned) [Example 102 D1E1] |
| > 10 | > 10 | A (A = <25 fold selective for hTREX1) | COCCn1cc(C(c2cc(F)ccc2C#N)C(C)c2nc(C(=O)Nc3cnoc3)c(O)c(=O)n2C)c(C)n1 (single isomer, unassigned) [Example 103 D2E2] |
| > 10 | > 10 | A (A = <25 fold selective for hTREX1) | COCCn1ncc(C(c2cc(F)ccc2C#N)C(C)c2nc(C(=O)Nc3cnoc3)c(O)c(=O)n2C)c1C (single isomer, unassigned) [Example 104 D1E2] |
| > 10 | > 10 | A (A = <25 fold selective for hTREX1) | COCCn1ncc(C(c2cc(F)ccc2C#N)C(C)c2nc(C(=O)Nc3cnoc3)c(O)c(=O)n2C)c1C (single isomer, unassigned) [Example 104 D2E1] |
| > 10 | > 10 | A (A = <25 fold selective for hTREX1) | CC(c1nc(C(=O)Nc2cnoc2)c(O)c(=O)n1C)C(c1cnn(C(C)C)c1)c1ccccc1C#N (single isomer, unassigned) [Example 105 D1E1] |
| > 10 | > 10 | A (A = <25 fold selective for hTREX1) | CC(c1nc(C(=O)Nc2cnoc2)c(O)c(=O)n1C)C(c1cnn(C(C)C)c1)c1ccccc1C#N (single isomer, unassigned) [Example 105 D2E2] |
| > 10 | > 10 | A (A = <25 fold selective for hTREX1) | CC(c1nc(C(=O)Nc2cnoc2)c(O)c(=O)n1C)C(c1cnn(C2COC2)c1)c1ccccc1C#N (single isomer, unassigned) [Example 106 D1E2] |
| > 10 | > 10 | A (A = <25 fold selective for hTREX1) | COCCn1ncc(C(c2cc(F)ccc2Cl)C(C)c2nc(C(=O)Nc3cnoc3)c(O)c(=O)n2C)c1C (single isomer, unassigned) [Example 108 D1E2] |
| > 10 | > 10 | A (A = <25 fold selective for hTREX1) | COCCn1ncc(C(c2cc(F)ccc2Cl)C(C)c2nc(C(=O)Nc3cnoc3)c(O)c(=O)n2C)c1C (single isomer, unassigned) [Example 108 D2E2] |

| SMILES | IC50 [1] [nM] | IC50 [2] [nM] | hTREX1 vs hTREX2 selectivity [3] |
| --- | --- | --- | --- |
| CC(c1nc(C(=O)Nc2cnoc2)c(O)c(=O)n1C)C(c1cnn(CC(C)(C)C#N)c1)c1cc(F)ccc1Cl (single isomer, unassigned) [Example 99 D1E2] | 1 to 10 | 1 to 10 | B (B = 25 to 50-fold selective for hTREX1) |
| COCCn1ncc(C(c2cc(F)ccc2C#N)C(C)c2nc(C(=O)Nc3cnoc3)c(O)c(=O)n2C)c1C (single isomer, unassigned) [Example 104 D2E2] | > 10 | 1 to 10 | B (B = 25 to 50-fold selective for hTREX1) |
| CC(c1nc(C(=O)Nc2cnoc2)c(O)c(=O)n1C)C(c1cnn(C2COC2)c1)c1ccccc1C#N (single isomer, unassigned) [Example 106 D2E1] | > 10 | > 10 | B (B = 25 to 50-fold selective for hTREX1) |
